According to paper PMC5589090 (PLoS Medicine, 2017):
Several values for one entry are separate records, joined by “and”; a condition that tells them apart may be missing. Equal entries are not always repeated. Where two headings read alike, the source gives them in different places.

Columns and labels:
[1] = tested on: LINE-1 repetitive element CpG; test: Methylation level of LINE-1 repetitive element CpG by pyrosequencing in PBMC; type: in vivo, human
Method: DNA was purified from peripheral blood mononuclear cells (isolated by Ficoll-Hypaque density centrifugation) using the Wizard Genomic DNA Purification Kit (Promega). DNA was bisulfite-converted using EZ DNA Lightning Methylation kit (Zymo Research). The PCR primers were 10 pmol of 5′- […]-3′ and 10 pmol of biotinylated-5′-[…]-3′. PCR cycling conditions were: cycle temperature of 94°C for 30 seconds, 60°C for 30 seconds, and 72°C for 30 seconds, for 45 cycles to consume all the biotinylated primers. The biotinylated strand was captured on streptavidin sepharose beads (Amersham Biosciences, Uppsala, Sweden) and annealed with the sequencing primer 5′-[…]-3′. The methylation degree of long interspersed nuclear elements (LINE-1) was computed at 3 CpG sites pyrosequenced with the Pyromark Q24 Pyrosequencer (Qiagen) using the dispensation order […].

[2] = Blood chemistries and biomarkers of hemolysis, thrombophilia, inflammation (LDH, total bilirubin, D-dimer, CRP); type: in vivo, human; settings: cohorts 4 and 5
From the text: Blood counts, blood chemistries, total bilirubin, HbF, LDH, and D-dimer levels were standard clinical pathology tests through the CLIA-certified Clinical Pathology Laboratory at the University of Illinois at Chicago.

[3] = human, po, 0.01 mg/kg
Method: To ensure safety in case of this possibility, decitabine pharmacokinetics are measured after single dose oral administration of decitabine and THU.

[4] = design: method as in ref 16 (a number printed in a supplementary file, which may have a reference list of its own: not looked up in the article's list); settings: decitabine 0.1-0.2mg/kg 1-2X/week, four SCD patients; cited from earlier work
[5] = ref Investigators Brochure, cited from earlier work
[6] = cited from earlier work
[7] = design: method as in Investigators Brochure; settings: THU co-administration, mice; ref Investigators Brochure; cited from earlier work
THP1 = settings: 0.3 µM daily for 2-3 days; cited from earlier work
DNMT1 = settings: cited from earlier work
[8] = tested on: Salmonella typhimurium tester strain TA100; design: method as in ref 78 (a number printed in a supplementary file, which may have a reference list of its own: not looked up in the article's list); settings: cited from earlier work
tumor cell lines = tested on: tumor cell lines; design: method as in ref 83 (a number printed in a supplementary file, which may have a reference list of its own: not looked up in the article's list); settings: of 25 940 genes analyzed; cited from earlier work
lung tumor = tested on: lung tumor; design: method as in ref 91 (a number printed in a supplementary file, which may have a reference list of its own: not looked up in the article's list); settings: cited from earlier work
immortal phenotype = tested on: immortal phenotype; design: method as in ref 93 (a number printed in a supplementary file, which may have a reference list of its own: not looked up in the article's list); settings: cited from earlier work
[9] = cited from earlier work; remark: listed apart in the source
[10] = cited from earlier work; remark: listed apart in the source
[11] = read-out: decitabine Cmax; 15 mg/m^2 IV over 3 hours Q8 hrs D1-3 or 20 mg/m^2 IV over 1 hour D1-5; ref 105;108;109; cited from earlier work
[12] = cited from earlier work; remark: listed apart in the source
[13] = cited from earlier work; remark: listed apart in the source
[14] = cited from earlier work; remark: listed apart in the source
E. Coli lac I transgene = settings: ref 76 77; cited from earlier work
[15] = rat, in vivo; cited from earlier work
[16] = Adverse events (CTCAE v 4.0), phase 1 trial NCT01685515 in SCD adults; settings: cohorts 1-5
From the text: The primary endpoint was ≥ grade 3 non-hematologic toxicity.
For statistical comparisons of adverse events (AEs) between placebo and each dose group, we performed exact tests of the null hypothesis that the rate parameters of Poisson distributed AEs are equal. Relative risks are given as the ratio of such rate parameters. Thus, differences are insignificant if relative risks confidence intervals include 1. The R function poisson.test(), an exact test, was used. Pain, the most frequent AE, was analyzed similarly.

[17] = per patient, SC 0.2 mg/kg 2x/week, 0.2 mg/kg

In the case of `Nc1ncn([C@H]2C[C@H](O)[C@@H](CO)O2)c(=O)n1` [decitabine, 5-aza-2’-deoxycytidine], the “LINE-1 repetitive element CpG methylation decrease in PBMC” value ([1]; decitabine […] (cohort 5) after THU 10 mg/kg 2X/week) is reported as “approximately 10%”, the “LINE-1 CpG methylation decrease in PBMC” value ([1]; lower decitabine doses (cohorts 1-4)) is reported as “not with lower decitabine doses” and the “serum LDH” value ([2]; biomarker of hemolysis) is reported as “improved”. For the same compound, the total bilirubin ([2]; biomarker of hemolysis) was “improved”, the CRP levels ([2]; biomarker of inflammation) was “improved” and the D-dimer ([2]; biomarker of thrombophilia) was “improved”. For the same compound, the Cmax [3] was no more than 0.74 nM, the “Hemoglobin increases within 2-4 weeks” value [4] was greater than 1.5 g/dL and the maximum hemoglobin increases [4] was 3.5 to 5 g/dL. For the same compound, the “increase of AUClast compared to oral decitabine alone” value ([5]; THU co-administration, baboons) was “approximately 9 fold”, the “hematologic or other evidence of cytotoxicity” value ([5]; oral decitabine 5-10 mg/m^2 + oral THU 400 mg/m^2 2-3X/week up to 8 weeks) was “did not produce hematologic or other evidence of cytotoxicity” and the Cmax ([5]; read-out: decitabine Cmax, oral decitabine 100 mg/m^2 + oral THU 400 mg/m^2, in 1 of 7 animals) was roughly 200 nM. The “plasma t ½” value ([6]; Fig 1C, decitabine alone) was less than 15 min, the “decitabine half-life in vivo” value ([6]; abbreviated by CDA, ref 27;28) was less than 20 min and the oral bioavailability ([6]; decitabine alone) was “negligible”. For the same compound, the plasma half-life ([6]; decitabine alone) was “only minutes”, the Cmax ([6]; read-out: Cmax that correlates with nucleotide pool imbalance, DNA-damage, and cytotoxicity) was greater than 500 nM and the “increase of AUClast compared to oral decitabine alone” value [7] was “approximately 9 fold”. For the same compound, the DNMT1 protein expression (THP1) was “profoundly decreased DNMT1 protein expression”, the “phosphorylation of H2AX” value (THP1) was “did not increase phosphorylation of H2AX” and the viability (THP1) was “did not decrease the viability”. For the same compound, the “concentrations that deplete DNMT1 without measurable DNA damage or cytotoxicity” value (DNMT1; in vitro) was 0.2 to 0.5 µM, the “threshold concentration for depleting DNMT1” value (DNMT1; ref 15;17-22;48) was ~ 0.005 µM and the half-life in vitro (DNMT1; ref 27;101) was 5 to 16 h. The mutagenicity [8] was “weak mutagen”, the “genes with increased expression” value (tumor cell lines) was 0.67% and the “reduction in tumor incidence” value (lung tumor) was 23%. For the same compound, the “reduction in tumor multiplicity” value (lung tumor) was 42%, the immortal phenotype (immortal phenotype) was “reversed the immortal phenotype” and the fetal defects ([9]; pregnant mice, dose and gestation day related) was “increased fetal defects”. For the same compound, the “fertility in off-spring after in utero exposure” value ([9]; primarily in males) was “decreased fertility in off-spring”, the stability in plasma ([10]; hydrolysis and cytidine deaminase) was “very unstable in plasma” and the “hydrolysis in aqueous solution every 7 hours” value ([10]; pH 7.4, 4 °C) was “approximately 2.5%”. The Cmax [11] was no more than 2700 nM, the “greater decitabine exposure in rodents versus human dose for dose” value [12] was “more than 100 fold” and the “total hemoglobin (Hb), peak” value ([13]; SC 0.2 mg/kg 2x/week for 12 weeks, five patients, baseline 7.88 ± 0.88) was 9.04 ± 0.77 g/dL. For the same compound, the “Absolute Retic count B/L” value ([13]; baseline, per patient) was 1.65e+11 L⁻¹ and 1.55e+11 L⁻¹ and 1.63e+11 L⁻¹ and 1.96e+11 L⁻¹ and 1.06e+11 L⁻¹, the “Annexin-V RBC B/L” value ([13]; baseline, per patient) was 0% and 2% and 0.6% and 3.4% and 0.8% and the “EPO B/L” value ([13]; baseline, per patient) was 197.8 mIU/ml and 25 mIU/ml and 241.4 mIU/ml and 186 mIU/ml and 86.6 mIU/ml. The “HbF B/L” value ([13]; baseline, per patient) was 7 g/dL and 0.1 g/dL and 2.8 g/dL and 4.8 g/dL and 3.6 g/dL, the “Hemoglobin B/L” value ([13]; baseline, per patient) was 8.8 g/dL and 10.7 g/dL and 6.1 g/dL and 7.8 g/dL and 6 g/dL and the “Indirect Bilirubin B/L” value ([13]; baseline, per patient) was 25.7 µmol/L and 104.3 µmol/L and 89 µmol/L and 33 µmol/L and 20 µmol/L. For the same compound, the “Normochromic Normovolumetric Cells B/L” value ([13]; baseline, per patient) was 36% and 67.4% and 65.4% and 63.9% and 61.2%, the “Serum LDH B/L” value ([13]; baseline, per patient) was 893 U/L and 596 U/L and 458 U/L and 192 U/L and 258 U/L and the “genotoxicity (erythrocyte micronucleus, VDJ recombination assay)” value [13] was “without erythrocyte micronucleus or VDJ recombination assay evidence of genotoxicity”. The “Increases in Hb achieved” value ([13]; in two of the five patients) was no less than 1.5 g/dL, the “Absolute Retic count Nadir” value [13, 17] was 1.35e+11 L⁻¹ and 1.6e+11 L⁻¹ and 1.16e+11 L⁻¹ and 1.25e+11 L⁻¹ and 7.9e+10 L⁻¹ and the “Absolute Retic count Wk 12” value [13, 17] was 1.35e+11 L⁻¹ and 1.6e+11 L⁻¹ and 1.16e+11 L⁻¹ and 1.45e+11 L⁻¹ and 7.9e+10 L⁻¹. The “Annexin-V RBC Nadir” value [13, 17] was 0% and 0.1% and 0.4%, the “Annexin-V RBC Wk 12” value [13, 17] was 0.5% and 0.7% and 0.1% and 2.6% and 1.1% and the “EPO Nadir” value [13, 17] was 117.2 mIU/ml and 17.1 mIU/ml and 131.4 mIU/ml and 180.7 mIU/ml and 71.5 mIU/ml. For the same compound, the “EPO Wk 12” value [13, 17] was 117.2 mIU/ml and 24.4 mIU/ml and 238.5 mIU/ml and 340.5 mIU/ml and 71.5 mIU/ml, the “HbF Peak” value [13, 17] was 7.5 g/dL and 0.7 g/dL and 3.5 g/dL and 5.6 g/dL and 4.1 g/dL and the “HbF Wk 12” value [13, 17] was 7.1 g/dL and 0.7 g/dL and 3.4 g/dL and 5.6 g/dL and 3.6 g/dL. The “Hemoglobin Peak” value [13, 17] was 9.4 g/dL and 11.8 g/dL and 7.7 g/dL and 8.7 g/dL and 7.6 g/dL, the “Hemoglobin Wk 12” value [13, 17] was 9.4 g/dL and 11.8 g/dL and 6.4 g/dL and 8.7 g/dL and 7.5 g/dL and the “Indirect Bilirubin Nadir” value [13, 17] was 27.4 µmol/L and 83.8 µmol/L and 48 µmol/L and 18 µmol/L and 8 µmol/L. The “Indirect Bilirubin Wk 12” value [13, 17] was 30.8 µmol/L and 83.8 µmol/L and 48 µmol/L and 33 µmol/L and 10 µmol/L, the “Neutrophil count Nadir” value [13, 17] was 2.82e+09 L⁻¹ and 2.2e+09 L⁻¹ and 5.2e+09 L⁻¹ and 2.1e+09 L⁻¹ and 4.5e+09 L⁻¹ and the “Neutrophil count Wk 12” value [13, 17] was 4.62e+09 L⁻¹ and 2.2e+09 L⁻¹ and 7.9e+09 L⁻¹ and 1.03e+10 L⁻¹ and 5.7e+09 L⁻¹. The “Normochromic Normovolumetric Cells Peak” value [13, 17] was 45.9% and 70% and 70.9% and 72.4%, the “Normochromic Normovolumetric Cells Wk 12” value [13, 17] was 45.9% and 69% and 70.5% and 66.4% and 68.1% and the “Platelet count Peak” value [13, 17] was 2.96e+11 L⁻¹ and 1.038e+12 L⁻¹ and 1.265e+12 L⁻¹ and 8.01e+11 L⁻¹ and 1.301e+12 L⁻¹. For the same compound, the “Platelet count Wk 12” value [13, 17] was 2.81e+11 L⁻¹ and 1.038e+12 L⁻¹ and 1.265e+12 L⁻¹ and 7.56e+11 L⁻¹ and 1.301e+12 L⁻¹, the “Serum LDH Nadir” value [13, 17] was 660 U/L and 541 U/L and 260 U/L and 149 U/L and 204 U/L and the “Serum LDH Wk 12” value [13, 17] was 660 U/L and 556 U/L and 324 U/L and 167 U/L and 204 U/L. The tolerability ([14]; 124 MDS subjects) was “well tolerated”, the major cytogenetic responses ([14]; MDS subjects with abnormal cytogenetics, 40-50 mg/m^2 3X/wk, courses every 6-8 weeks) was 31% and the “unusual patterns of cytogenetic instabilities” value ([14]; MDS subjects) was “no unusual patterns of cytogenetic instabilities were found”. For the same compound, the treatment related deaths ([14]; MDS, 45 mg/m^2/day for 3 days every 6 weeks, ref Saba et al, 2004) was “no treatment related deaths”, the secondary malignancies ([14]; over 1,000 patients with hematologic or solid tumors) was “no reports of secondary malignancies” and the “side effects of chronic metronomic very-low-dose decitabine” value ([14]; patients with myeloid malignancies, treated for years) was “without significant side effects”. The transgene mutations (E. Coli lac I transgene) was “mutations predominantly at CpG nucleotides”, the embryo toxicity [15] was “fetal resorption and fetal defects” and the “grade 4 AEs” value [16] was “no grade 4 AEs”.
